Reference: patent US9284333B2, “Fused pyrroledicarboxamides and their use as pharmaceuticals” (SANOFI, priority 2012, dated 2016)
pIC50: −log10 of the molar value.

Each compound was assayed against Human TASK-1 channels (Homo sapiens (Human), UniProt O14649) (assay: Determination of the activity on the TASK-1 channel in Xenopus oocytes (two-microelectrode voltage clamp)). Conditions: compound concentration 5 μM.
Type: cell-based
Method in brief: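 Current during 500 ms pulses to 40 mV from a −90 mV hold was recorded in oocytes expressing human TASK-1 for two days after cRNA injection. Compounds were added cumulatively to the ND96 bath (pH 7.4, room temperature). IC50 came from dose-response fitting of inhibition relative to pre-compound current.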

Sequence of Human TASK-1 channels (O14649 whole entry): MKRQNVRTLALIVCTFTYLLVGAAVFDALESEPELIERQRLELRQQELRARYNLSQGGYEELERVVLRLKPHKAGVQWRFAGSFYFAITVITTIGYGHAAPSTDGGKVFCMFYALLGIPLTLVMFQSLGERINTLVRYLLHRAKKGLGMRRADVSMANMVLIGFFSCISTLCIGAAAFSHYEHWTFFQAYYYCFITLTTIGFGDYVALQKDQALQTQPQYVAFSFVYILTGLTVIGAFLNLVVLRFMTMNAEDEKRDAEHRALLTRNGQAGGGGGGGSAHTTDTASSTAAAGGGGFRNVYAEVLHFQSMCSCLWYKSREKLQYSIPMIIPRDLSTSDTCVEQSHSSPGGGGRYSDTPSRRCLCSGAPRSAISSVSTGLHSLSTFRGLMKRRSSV

First: C[C@H]1CCCN1C(=O)c1cc(C(=O)NCc2c(Cl)cccc2Cl)c2n1CCOC2 [16ag, 6-((S)-2-Methyl-pyrrolidine-1-carbonyl)-3,4-dihydro-1H-pyrrolo[2,1-c][1,4]oxazine-8-carboxylic acid 2,6-dichloro-benzylamide]
Second: CC[C@H](NC(=O)c1cc(C(=O)N2CCC[C@@H]2C)n2c1COCC2)c1ccc(F)c(C(F)(F)F)c1 [16bp]
The inhibition at 5 µM of the first is lower: 84% for the first, 90% for the second.

For `CC[C@H](NC(=O)c1cc(C(=O)N2CCC[C@@H]2C)n2c1COCC2)c1ccc(C(F)(F)F)c(F)c1` [16bn, 6-((S)-2-Methyl-pyrrolidine-1-carbonyl)-3,4-dihydro-1H-pyrrolo[2,1-c][1,4]oxazine-8-carboxylic acid [(S)-1-(3-fluoro-4-trifluoromethyl-phenyl)-propyl]-amide], the inhibition at 5 µM was 63%.

Same assay, conditions: human TASK-1 expressed in Xenopus oocytes, room temperature; read-out: IC50 value for TASK-1 inhibition

Going from `CC[C@@H](NC(=O)c1cc(C(=O)N2CCC[C@@H]2c2cnccn2)n2c1COCC2)c1ccccc1` [16fp, 6-((R)-2-Pyrazin-2-yl-pyrrolidine-1-carbonyl)-3,4-dihydro-1H-pyrrolo[2,1-c][1,4]oxazine-8-carboxylic acid ((R)-1-phenyl-propyl)-amide] to `CC[C@@H](NC(=O)c1cc(C(=O)N2CCC[C@@H]2C)n2c1COCC2)c1cccc(C#N)c1` [16aj, 6-((S)-2-Methyl-pyrrolidine-1-carbonyl)-3,4-dihydro-1H-pyrrolo[2,1-c][1,4]oxazine-8-carboxylic acid [(R)-1-(3-cyano-phenyl)-propyl]-amide], the pIC50 rises from 5.72 to 6.26 (0.54 log units).

Going from `CC[C@@H](NC(=O)c1cc(C(=O)N[C@H](CC)c2cccnc2OC)n2c1COCC2)c1ccccc1` [16ig, 3,4-Dihydro-1H-pyrrolo[2,1-c][1,4]oxazine-6,8-dicarboxylic acid 6-{[(R)-1-(2-methoxy-pyridin-3-yl)-propyl]-amide} 8-[((R)-1-phenyl-propyl)-amide]] to `CC[C@@H](NC(=O)c1cc(C(=O)NCc2ncccn2)c2n1CCOC2)c1ccccc1` [16jm, 3,4-Dihydro-1H-pyrrolo[2,1-c][1,4]oxazine-6,8-dicarboxylic acid 6-[((R)-1-phenyl-propyl)-amide] 8-[(pyrimidin-2-ylmethyl)-amide]], the pIC50 falls from 6.62 to 5.82 (0.80 log units).

Compared with `CC[C@@H](NC(=O)c1cc(C(=O)NCc2ccc(CC(=O)OC)cc2)n2c1COCC2)c1ccccc1` [16is, [4-({[8-((R)-1-Phenyl-propylcarbamoyl)-3,4-dihydro-1H-pyrrolo[2,1-c][1,4]oxazine-6-carbonyl]-amino}-methyl)-phenyl]-acetic acid methyl ester], `CC[C@@H](NC(=O)c1cc(C(=O)NCc2cccc(C(=O)OC)c2)n2c1COCC2)c1ccccc1` [16iq, 3-({[8-((R)-1-Phenyl-propylcarbamoyl)-3,4-dihydro-1H-pyrrolo[2,1-c][1,4]oxazine-6-carbonyl]-amino}-methyl)-benzoic acid methyl ester] is 0.71 log units higher in pIC50: 5.77 for the first, 6.48 for the second.

Going from `CC[C@@H](NC(=O)c1cc(C(=O)N2CCC[C@@H]2C)n2c1COC(C)(C)C2)c1ccc(C#N)cc1` [16nx, 3,3-Dimethyl-6-((S)-2-methyl-pyrrolidine-1-carbonyl)-3,4-dihydro-1H-pyrrolo[2,1-c][1,4]oxazine-8-carboxylic acid [(R)-1-(4-cyano-phenyl)-propyl]-amide] to `CC[C@@H](NC(=O)c1cc(C(=O)N2CCC[C@@H]2C)n2c1COCC2)c1ccc(C(F)(F)F)cc1` [16f, 6-((S)-2-Methyl-pyrrolidine-1-carbonyl)-3,4-dihydro-1H-pyrrolo[2,1-c][1,4]oxazine-8-carboxylic acid [(R)-1-(4-trifluoromethyl-phenyl)-propyl]-amide], the pIC50 rises from 6.43 to 7.17 (0.74 log units).

First: CC[C@@H](NC(=O)c1cc(C(=O)N2CCC[C@@H]2C)n2c1COCC2)c1cccs1 [16rc, 6-((S)-2-Methyl-pyrrolidine-1-carbonyl)-3,4-dihydro-1H-pyrrolo[2,1-c][1,4]oxazine-8-carboxylic acid ((R)-1-thiophen-2-yl-propyl)amide]
Second: CC[C@@H](NC(=O)c1cc(C(=O)N2CCC[C@@H]2C)n2c1COCC2)c1ccc(OC)c(Cl)c1 [16ch, 6-((S)-2-Methyl-pyrrolidine-1-carbonyl)-3,4-dihydro-1H-pyrrolo[2,1-c][1,4]oxazine-8-carboxylic acid [(R)-1-(3-chloro-4-methoxy-phenyl)-propyl]-amide]
The pIC50 of the first is 0.32 log units lower: 6.82 for the first, 7.14 for the second. The second is the more potent here.

Compared with `CC[C@@H](NC(=O)c1cc(C(=O)N[C@H](C)c2ccc(F)cc2)n2c1COCC2)c1cnc(OC)cn1` [16dw, 3,4-Dihydro-1H-pyrrolo[2,1-c][1,4]oxazine-6,8-dicarboxylic acid 6-{[(R)-1-(4-fluoro-phenyl)-ethyl]-amide} 8-{[(R)-1-(5-methoxy-pyrazin-2-yl)-propyl]-amide}], `CC[C@@H](NC(=O)c1cc(C(=O)N[C@H](C)c2ccc(F)cc2)n2c1COCC2)c1ccc(C#N)cc1` [16ec, 3,4-Dihydro-1H-pyrrolo[2,1][1,4]oxazine-6,8-dicarboxylic acid 8-{[(R)-1-(4-cyano-phenyl)-propyl]-amide} 6-{[(R)-1-(4-fluoro-phenyl)-ethyl]-amide}] is 1.10 log units lower in pIC50: 7.32 for the first, 6.22 for the second. The first is the more potent here.

First: CC[C@@H](NC(=O)c1cc(C(=O)NCC(=O)OC(C)C)n2c1COCC2)c1ccccc1 [16iw, {[8-((R)-1-Phenyl-propylcarbamoyl)-3,4-dihydro-1H-pyrrolo[2,1-c][1,4]oxazine-6-carbonyl]-amino}-acetic acid isopropyl ester]
Second: CC[C@@H](NC(=O)c1cc(C(=O)NCC(C)(C)O)n2c1COCC2)c1ccccc1 [16jd, 3,4-Dihydro-1H-pyrrolo[2,1-c][1,4]oxazine-6,8-dicarboxylic acid 6-[(2-hydroxy-2-methyl-propyl)-amide] 8-[((R)-1-phenyl-propyl)-amide]]
The pIC50 of the first is 0.61 log units higher: 6.21 for the first, 5.60 for the second.

`CC[C@@H](NC(=O)c1cc(C(=O)N2CCC[C@@H]2C)n2c1CSCC2)c1ccccc1` [16kz, 6-((S)-2-Methyl-pyrrolidine-1-carbonyl)-3,4-hihydro-1H-pyrrolo[2,1-c][1,4]thiazine-8-carboxylic acid ((R)-1-phenyl-propyl)-amide] and `CC[C@@H](NC(=O)c1cc(C(=O)N2Cc3ccccc3C2)n2c1COCC2)c1ccccc1` [16ih, 6-(1,3-Dihydro-isoindole-2-carbonyl)-3,4-dihydro-1H-pyrrolo[2,1-c][1,4]oxazine-8-carboxylic acid ((R)-1-phenyl-propyl)-amide] are within 0.2 log units of each other in pIC50: 6.57 for the first, 6.70 for the second.

First: CC[C@@H](NC(=O)c1cc(C(=O)NCC(CC2CC2)c2ccccc2)n2c1CCCC2)c1ccccc1 (stereo partly drawn) [16na, 5,6,7,8-Tetrahydro-indolizine-1,3-dicarboxylic acid 3-[(3-cyclopropyl-2-phenyl-propyl)-amide] 1-[((R)-1-phenyl-propyl)-amide]]
Second: CC[C@@H](NC(=O)c1cc(C(=O)Nc2c(C)noc2C)n2c1CCCC2)c1ccccc1 [16nd, 5,6,7,8-Tetrahydro-indolizine-1,3-dicarboxylic acid 3-[(3,5-dimethyl-isoxazol-4-yl)-amide] 1-[((R)-1-phenyl-propyl)-amide]]
The pIC50 of the first is 0.91 log units lower: 5.77 for the first, 6.68 for the second. The second is the more potent here.

Compared with `CC[C@@H](NC(=O)c1cc(C(=O)NCc2ccc(F)cc2F)c2n1CCOC2)c1cccc(OC)n1` [16nt, 3,4-Dihydro-1H-pyrrolo[2,1-c][1,4]oxazine-6,8-dicarboxylic acid 8-(2,4-difluoro-benzylamide) 6-{[(R)-1-(6-methoxy-pyridin-2-yl)-propyl]-amide}], `C[C@@H](NC(=O)c1cc(C(=O)N[C@H](C)c2ccccc2F)c2n1CCOC2)c1ccc(F)cc1` [16dq, 3,4-Dihydro-1H-pyrrolo[2,1-c][1,4]oxazine-6,8-dicarboxylic acid 6-{[(R)-1-(4-fluoro-phenyl)-ethyl]-amide} 8-{[(R)-1-(2-fluoro-phenyl)-ethyl]-amide}] is 0.49 log units higher in pIC50: 6.17 for the first, 6.66 for the second.

`CC[C@@H](NC(=O)c1cc(C(=O)N[C@H](C)c2cnccn2)n2c1COCC2)c1ccccc1Cl` [16nq, 3,4-Dihydro-1H-pyrrolo[2,1-c][1,4]oxazine-6,7-dicarboxylic acid 8-{[(R)-1-(2-chloro-phenyl)-propyl]-amide} 6-[((R)-1-pyrazin-2-yl-ethyl)-amide]] and `CC(C)[C@@H](NC(=O)c1cc(C(=O)N[C@@H](C)c2ncccn2)c2n1CCOC2)c1ccc(F)cc1` (racemic) [16lr, 3,4-Dihydro-1H-pyrrolo[2,1-c][1,4]oxazine-6,8-dicarboxylic acid 6-{[(R)-1-(4-fluoro-phenyl)-2-methyl-propyl]-amide} 8-[((S)-1-pyrimidin-2-yl-ethyl)-amide]] are within 0.2 log units of each other in pIC50: 6.32 for the first, 6.44 for the second.

Going from `C[C@@H](NC(=O)c1cc(C(=O)N2CCC[C@@H]2C(F)(F)F)c2n1CCOC2)c1ccc(F)cc1` [16dk, 8-((R)-2-Trifluoromethyl-pyrrolidine-1-carbonyl)-3,4-dihydro-1H-pyrrolo[2,1-c][1,4]oxazine-6-carboxylic acid [(R)-1-(4-fluoro-phenyl)-ethyl]-amide] to `CC[C@@H](NC(=O)c1c(Br)c(C(=O)N2CCC[C@@H]2C)n2c1COCC2)c1ccc(C(F)(F)F)nc1` [16ru, 7-Bromo-6-((S)-2-methyl-pyrrolidine-1-carbonyl)-3,4-dihydro-1H-pyrrolo[2,1-c][1,4]oxazine-8-carboxylic acid [(R)-1-(6-trifluoromethyl-pyridin-3-yl)-propyl]-amide], the pIC50 falls from 6.80 to 6.09 (0.71 log units).

First: CC[C@@H](NC(=O)c1cc(C(=O)Nc2nc(C)c(C)s2)c2n1CCOC2)c1ccccc1 [16ju, 3,4-Dihydro-1H-pyrrolo[2,1-c][1,4]oxazine-6,8-dicarboxylic acid 8-[(4,5-dimethyl-thiazol-2-yl)-amide] 6-[((R)-1-phenyl-propyl)-amide]]
Second: CC[C@@H](NC(=O)c1cc(C(=O)N2CCCC2)n2c1COCC2)c1ccc(F)cc1F [16de]
The pIC50 of the first is 1.28 log units lower: 6.03 for the first, 7.31 for the second. The second is the more potent here.

`CC(NC(=O)c1cc(C(=O)N[C@H](C)c2ccc(F)cc2)n2c1CCCC2)c1ncccn1` (stereo partly drawn) [16lu, 5,6,7,8-Tetrahydro-indolizine-1,3-dicarboxylic acid 3-{[(R)-1-(4-fluoro-phenyl)-ethyl]-amide} 1-[(1-pyrimidin-2-yl-ethyl)-amide]] showed a pIC50 of 6.35.
